Test results as given in US3989835A, “Method of using 6-substituted amino phenyl-2,3,5,6-tetra-hydro[2,1-b]thiazoles for controlling gastrointestinal nematodes” (American Cyanamid Company, priority 1974, dated 1976).
Where a name gives a salt, the structure may show the parent alone. Read-outs that look alike come from different tables or passages of the source.

What was measured:
Nematospiroides dubius = experiment: Anthelmintic efficacy against N. dubius in mice, single oral dose; format: in vivo, Nematospiroides dubius (in albino female mice); details: for inhibition in vivo at 20 mg/kg: single oral dose 20 mg./Kg.; for inhibition in vivo at 40 mg/kg: single oral dose 40 mg./Kg.; for inhibition in vivo at 4 mg/kg: single oral dose 4.0 mg./Kg.; for inhibition in vivo at 0.625 mg/kg: single oral dose 0.625 mg./Kg., adjusted to molar equivalents of tetramisole free base; for inhibition in vivo at 7.5 mg/kg: single oral dose 7.5 mg./Kg.
Method: Albino female mice are each inoculated with about 20 infectious larvae of Nematospiroides dubius. This nematode is a representative of the economical important trichostrongylis worms of ruminants and other hosts, and of nematodes in general. Twenty-two days after inoculation, groups of four randomly selected mice containing adult N. dubius are given single oral doses of test compounds dissolved or suspended in 0.4 ml. of water per 20 gram mouse. At 26 or 27 days after inoculation, treated mice and in each test four randomly selected groups of untreated mice are necropsied. The number of worms in the small intestine of each mouse are determined by microscopic examination. Average worm numbers for each treated group and for the untreated controls are computed and the percent efficacy determined by the customary formula:
(Average Worms in Control - Average Worms in Treated)/(Average Worms in Control) X 100.

in vivo = details: for Approx. LD50 /ED50: chemotherapeutic index, mouse oral, N. dubius
From the text: Data on the acute oral toxicity to mice of various single oral doses of the above compounds and several analogs were obtained by conventional procedures, (Table IX hereinafter).

[1] = Heligmosomoides polygyrus, po, as Base, single oral dose, mice, > indicates inactive at dose shown, read-out: Approx. ED50
[2] = Heligmosomoides polygyrus, po, mouse oral, Table IX, read-out: Approx. ED50 vs. N. dubius
[3] = Heligmosomoides polygyrus, po, single oral dose 10 mg./Kg., molar-adjusted, read-out: Percent Nematospiroides Activity
[4] = Heligmosomoides polygyrus, po, molar-adjusted, read-out: Percent Nematospiroides Activity
[5] = mouse, in vivo, po, Approx. LD50, mouse oral, Table IX
[6] = mouse, in vivo, po, LD50, mice, adjusted to molar equivalents of tetramisole free base
[7] = single oral dose 80 Mg./Kg., mice
[8] = single oral dose 120 Mg./Kg., mice
[9] = single oral dose 50 Mg./Kg., mice
[10] = single oral dose 100 Mg./Kg., mice
[11] = single oral dose 150 Mg./Kg., mice
[12] = single oral dose 200 Mg./Kg., mice
[13] = Heligmosomoides polygyrus, po, single oral dose 2.0 mg./Kg., molar-adjusted, read-out: Percent Nematospiroides Activity
[14] = Heligmosomoides polygyrus, po, single oral dose 5.0 mg./Kg., molar-adjusted, read-out: Percent Nematospiroides Activity
[15] = Heligmosomoides polygyrus, po, single oral dose 1.25 mg./Kg., molar-adjusted, read-out: Percent Nematospiroides Activity
[16] = single oral dose 5.0 mg./Kg., molar-adjusted
[17] = single oral dose 10 mg./Kg., molar-adjusted
[18] = single oral dose 60 Mg./Kg., mice
[19] = Heligmosomoides polygyrus, po, read-out: Percent Nematospiroides Activity
[20] = single oral dose 40 Mg./Kg., mice

SMILES | ED50 (Nematospiroides dubius; [1]) | ED50 (Nematospiroides dubius; [2]) | inhibition in vivo at 10 mg/kg (Nematospiroides dubius; [3]) | Approx. LD50 /ED50 (in vivo; Table IX) | LD50 (in vivo; [5]) | LD50 (in vivo; [6]) | inhibition in vivo at 2 mg/kg (Nematospiroides dubius; [13]) | inhibition in vivo at 5 mg/kg (Nematospiroides dubius; [14]) | inhibition in vivo at 1.25 mg/kg (Nematospiroides dubius; [15]) | further results
CCC(CC)C(=O)Nc1cccc(C2CN3CCSC3=N2)c1 (racemic) [m-NH-CO-CH(C2 H5)2 dl] | 7.5 mg/kg | 7.5 mg/kg | 85% | 21 | 160 mg/kg | ~160 mg/kg | – | – | – | inhibition in vivo at 20 mg/kg (Nematospiroides dubius; [4]): 99%; inhibition in vivo at 40 mg/kg (Nematospiroides dubius; [4]): 100%; Dead/Total (in vivo; [7]): 0/6; Dead/Total (in vivo; [8]): 0/6; Dead/Total (in vivo; single oral dose 180 Mg./Kg., mice): 3/6
COC(=O)Nc1cccc(C2CN3CCSC3=N2)c1 (racemic) [m-NH-CO-OCH3 dl, dl-m-(2,3,5,6-tetrahydroimidazo[2,1-b]thiazol-6-yl)carbanilic acid methyl ester, hydrochloride] | 15 mg/kg | 15 mg/kg | 25% | 10 | 150 mg/kg | ~125 mg/kg | – | – | – | inhibition in vivo at 20 mg/kg (Nematospiroides dubius; [4]): 96%; inhibition in vivo at 40 mg/kg (Nematospiroides dubius; [4]): 100%; Dead/Total (in vivo; [9]): 0/5; Dead/Total (in vivo; [10]): 0/5; Dead/Total (in vivo; [11]): 3/5; Dead/Total (in vivo; [12]): 5/5
O=CNc1cccc(C2CN3C=CSC3=N2)c1 (stereo not drawn) [5,6-dihydro HNCHO] | – | – | 100% | – | – | ~150 mg/kg | – | – | – | inhibition in vivo at 4 mg/kg (Nematospiroides dubius; [4]): 64%
Cl.Cl.Nc1cccc(C2CN3C=CSC3=N2)c1 (stereo not drawn) [5,6-dihydro m-NH2 dl, 6-(m-Aminophenyl)-5,6-dihydroimidazo[2,1-b]thiazole dihydrochloride] | 1.5 mg/kg | 1.5 mg/kg | 100% | – | 10 mg/kg | ~80 mg/kg | 53% | 96% | – | –
O=C(CCl)Nc1cccc(C2CN3CCSC3=N2)c1 (stereo not drawn) [H--N--CO--CH2 Cl] | – | – | – | – | – | 50 to 60 mg/kg | – | 100% | 84% | inhibition in vivo at 40 mg/kg (Nematospiroides dubius; [4]): 100%; inhibition in vivo at 50 mg/kg (Nematospiroides dubius; Heligmosomoides polygyrus, po, single oral dose 50 mg./Kg., molar-adjusted, read-out: Percent Nematospiroides Activity): 100%
CC(=O)Nc1cccc(C2CN3CCSC3=N2)c1 (stereo not drawn) [HN--CO--CH3] | – | – | 100% | – | – | 40 to 60 mg/kg | – | – | – | inhibition in vivo at 4 mg/kg (Nematospiroides dubius; [4]): 66%
CCCCCCC(=O)Nc1cccc(C2CN3CCSC3=N2)c1 (stereo not drawn) [HNCO(CH2)5 CH3] | – | – | – | – | – | – | – | – | – | Percent Nematospiroides Activity (Nematospiroides dubius; single oral dose 1.25 mg./Kg., molar-adjusted): 53%; Percent Nematospiroides Activity (Nematospiroides dubius; single oral dose 2.0 mg./Kg., molar-adjusted): 99%; Percent Nematospiroides Activity (Nematospiroides dubius; [16]): 100%; Percent Nematospiroides Activity (Nematospiroides dubius; [17]): 100%; LD50 (in vivo; mice, adjusted to molar equivalents of tetramisole free base): 20 to 25 mg/kg
CC(C)(C)CC(=O)Nc1cccc(C2CN3CCSC3=N2)c1 (stereo not drawn) [HNCOCH2 C(CH3)2] | – | – | 98% | – | – | 80 to 100 mg/kg | – | 59% | – | –
Nc1ccc([N+](=O)[O-])c(C2CN3CCSC3=N2)c1 (stereo not drawn) [R1 =H R4 =NO2] | – | 2 mg/kg | 100% | 60 | 120 mg/kg | 120 to 140 mg/kg | 43% | – | – | ED50 (Nematospiroides dubius; Heligmosomoides polygyrus, po, continuation of Table X (R1/R4 disubstituted), read-out: ED50): 2 mg/kg; inhibition in vivo at 4 mg/kg (Nematospiroides dubius; [4]): 89%; Dead/Total (in vivo; [18]): 0/6; Dead/Total (in vivo; [8]): 2/6; Dead/Total (in vivo; single oral dose 240 Mg./Kg., mice): 6/6
O=C(C=Cc1ccccc1)Nc1cccc(C2CN3CCSC3=N2)c1 (stereo not drawn) [Table XII b1827] | – | – | 100% | – | – | ~90 mg/kg | 67% | 100% | 60% | –
O=C(Nc1cccc(C2CN3CCSC3=N2)c1)c1ccccc1 (stereo not drawn) [Table XII b1839] | – | – | – | – | – | 50 to 60 mg/kg | 100% | – | 94% | –
COc1ccc(C(=O)Nc2cccc(C3CN4CCSC4=N3)c2)cc1 (stereo not drawn) [Table XII b1843] | – | – | – | – | – | 60 to 80 mg/kg | 95% | 100% | 58% | inhibition in vivo at 0.625 mg/kg (Nematospiroides dubius; [19]): 56%
O=C(Nc1cccc(C2CN3CCSC3=N2)c1)c1ccc(Cl)cc1 (stereo not drawn) [Table XII b1847] | – | – | – | – | – | ~80 mg/kg | 90% | 100% | 63% | inhibition in vivo at 0.625 mg/kg (Nematospiroides dubius; [19]): 40%
O=C(Nc1cccc(C2CN3CCSC3=N2)c1)c1cccc(Cl)c1 (stereo not drawn) [Table XII b1851] | – | – | – | – | – | 80 to 100 mg/kg | 95% | 97% | 52% | inhibition in vivo at 0.625 mg/kg (Nematospiroides dubius; [19]): 40%
O=C(Nc1cccc(C2CN3CCSC3=N2)c1)c1ccc(Cl)c(Cl)c1 (stereo not drawn) [Table XII b1854] | – | – | – | – | – | 80 to 100 mg/kg | 92% | 95% | 52% | inhibition in vivo at 0.625 mg/kg (Nematospiroides dubius; [19]): 58%
O=C(Nc1cccc(C2CN3CCSC3=N2)c1)c1ccc([N+](=O)[O-])cc1 (stereo not drawn) [Table XII b1857] | – | – | 100% | – | – | 60 to 90 mg/kg | 78% | 100% | 65% | –
O=C(Nc1cccc(C2CN3CCSC3=N2)c1)c1ccco1 (stereo not drawn) [Table XII b1864] | – | – | 99% | – | – | 80 to 100 mg/kg | 37% | 85% | – | inhibition in vivo at 20 mg/kg (Nematospiroides dubius; [4]): 100%
O=C(Nc1cccc(C2CN3C=CSC3=N2)c1)c1ccccc1 (stereo not drawn) [Table XIV b1987] | – | – | 100% | – | – | ~120 mg/kg | – | 94% | – | Percent Nematospirides Activity (Nematospiroides dubius; single oral dose 2.5 mg./Kg., molar-adjusted): 73%
CC(=O)Nc1cccc(C2CN3CCSC3=N2)c1 (stereo not drawn) [m-NH--CO--CH3 dl, 3'-(2,3,5,6-Tetrahydroimidazo[2,1-b]thiazol-6-yl)acetanilide] | 4 mg/kg | 3 to 4 mg/kg | – | – | > 10 mg/kg | – | – | – | – | –
CC(C)C(=O)Nc1cccc(C2CN3CCSC3=N2)c1.Cl (stereo not drawn) [m-NH--CO--CH(CH3)2 dl, 3'-(2,3,5,6-tetrahydroimidazo[2,1-b]thiazol-6-yl)isobutyranilide hydrochloride] | 3 mg/kg | 3 mg/kg | 100% | 20 | ~60 mg/kg | ~75 mg/kg | – | 99% | – | inhibition in vivo at 20 mg/kg (Nematospiroides dubius; [4]): 100%; Dead/Total (in vivo; [20]): 1/6; Dead/Total (in vivo; [7]): 5/6; Dead/Total (in vivo; [8]): 6/6
CC(C)C(=O)Nc1cccc(C2CN3CCSC3=N2)c1 (stereo not drawn) [m-NH--CO--CH(CH3)2 l] | 1 mg/kg | 1 mg/kg | – | 50 | 50 mg/kg | 60 to 75 mg/kg | 96% | – | 77% | inhibition in vivo at 0.625 mg/kg (Nematospiroides dubius; [19]): 30%; inhibition in vivo at 7.5 mg/kg (Nematospiroides dubius; [4]): 97%; Percent Nematospiroides Activity (Nematospiroides dubius; [16]): 100%; Percent Nematospiroides Activity (Nematospiroides dubius; [17]): 100%; Dead/Total (in vivo; [9]): 2/8; Dead/Total (in vivo; [10]): 8/8
CC(C)Nc1cccc(C2CN3CCSC3=N2)c1 (stereo not drawn) [m-NH-CH(CH3)2 dl, 6-(m-isopropylaminophenyl)-2,3,5,6-tetrahydroimidazo[2,1-b]thiazole] | 5 mg/kg | 5 mg/kg | 100% | 8 | ~40 mg/kg | ~50 mg/kg | – | 55% | – | inhibition in vivo at 7.5 mg/kg (Nematospiroides dubius; [4]): 89%; inhibition in vivo at 20 mg/kg (Nematospiroides dubius; [4]): 100%; inhibition in vivo at 40 mg/kg (Nematospiroides dubius; [4]): 100%; Dead/Total (in vivo; [20]): 2/6; Dead/Total (in vivo; [18]): 3/6; Dead/Total (in vivo; [7]): 4/6; Dead/Total (in vivo; [10]): 5/6
COC(=O)Nc1cccc(C2CN3CCSC3=N2)c1 (stereo not drawn) [m-NH-CO--OCH3 l, l-m-(2,3,5,6-tetrahydroimidazo[2,1-b]thiazol-6-yl)carbanilicacid methyl ester, hydrochloride] | 7.5 mg/kg | 7.5 mg/kg | 61% | 20 | ~150 mg/kg | ~125 mg/kg | – | 28% | – | inhibition in vivo at 20 mg/kg (Nematospiroides dubius; [4]): 100%; inhibition in vivo at 40 mg/kg (Nematospiroides dubius; [4]): 100%; Dead/Total (in vivo; [9]): 0/5; Dead/Total (in vivo; [10]): 0/5; Dead/Total (in vivo; [11]): 1/5; Dead/Total (in vivo; [12]): 5/5
CC(C)(C)C(=O)Nc1cccc(C2CN3CCSC3=N2)c1 (stereo not drawn) [m-NH-CO-C(CH3)2 l] | 1 mg/kg | 1 mg/kg | 100% | 100 | 100 mg/kg | ~100 mg/kg | 69% | 90% | 60% | Dead/Total (in vivo; [9]): 0/6; Dead/Total (in vivo; [10]): 2/6; Dead/Total (in vivo; [12]): 6/6
